Laboratory results: US9504728B2, “Dosage form” (priority 2011, dated 2016)
Read-outs that look alike come from different tables or passages of the source.

Key:
in vivo = conditions: CD1 mice; for AUC(0-t) / bioavailability: male, mouse; for bioavailability: read-out: Oral bioavailability F %
Protocol: For sanglifehrins, whole blood is analysed. Compounds are formulated in 5% ethanol/5% cremophor EL/90% saline for both p.o. and i.v. administration. Groups of 3 male CD1 mice are dosed with either 1 mg/kg i.v. or 5 or 10 mg/kg p.o. Blood samples (40 μL) are taken via saphenous vein, pre-dose and at 0.25, 0.5, 2, 8, and 24 hours, and diluted with an equal amount of dH20 and put on dry ice immediately. Samples are stored at −70° C. until analysis. The concentration of the sanglifehrin or parent compound in the sample is determined via LCMS as follows: 20 μL of blood:H2O (1:1, v/v)/PK sample is added with 20 μL Internal standard (hydroxyl macrocycle, 6) at 100 ng/mL, 20 μL working solution/MeOH and 150 μL of ACN, vortexed for 1 minute at 1500 rpm, and centrifuged at 12000 rpm for 5 min. The supernatant is then injected into LC-MS/MS. The time-course of blood concentrations is plotted and used to derive area under the whole blood concentration-time curve (AUC—which is directly proportional to the total amount of unchanged drug that reaches the systemic circulation). These values are used to generate PK parameters where possible.
To assess the pharmacokinetics of the compounds in an in vivo setting, compounds were dosed po at 10 or 5 mg/kg and iv at 1 mg/kg to groups of CD1 mice.
Pharmacokinetic analysis was carried out as described in the general methods.

[1] = In vitro stability in acidic and neutral conditions (SGF, SGF + pepsin, SGF + denatured pepsin, PBS); conditions: for PBS % remaining after 1 hour: phosphate buffered saline pH 7.3, 37° C.; for SGF % remaining after 1 hour: simulated gastric fluid pH 1.2, 37° C.
Protocol: 1 mM DMSO solutions were made of compounds to be tested and mixed on vibrax to ensure compound was fully dissolved.
PBS Solution: 2 tablets of Phosphate Buffered Saline (Dulbecco A) tablets (Oxoid, BR0014G) were added to 200 mL distilled water and stirred to mix. pH was measured at 7.28.
Simulated Gut Fluid (SGF): 300 uL conc. HCl added to 50 mL distilled water and mixed. pH was measured at 1.21.
Simulated gut fluid+pepsin: 300 uL conc. HCl and 1 g of Pepsin (from Porcine gastric mucosa, Sigma) were added to 50 mL distilled water and mixed by stirring for 1 hr.
SGF+denatured pepsin: 900 uL of Acidic Enzyme Solution taken into a 2 mL eppendorf tube and heated at 99° C. in a water bath for 30 mins.
Acidic Enzyme and Acidic Denatured Enzyme solutions were made fresh each day, whereas PBS and Acid Solutions were stored at 4° C. when not in use.
Eppendorfs containing 900 uL of test solutions were pre-warmed in a 37° C. water bath. At t=0, 100 uL of test compound (1 mM DMSO solution) was added to test solution and mixed. 100 uL was taken immediately and mixed into 900 uL acetonitrile in an amber glass LC vial. 50-100 uL of the sample was analysed by HPLC, integrating the compounds' UV peaks to determine degradation over time. Sanglifehrin A was measured at its λmax of 240 nm; 33, 45 and 24 were measured at their λmax of 276 nm.
Further samples were taken in the same manner for analysis at approximately t=0.33, 0.67, 1.0, 2.67, and 4.67 hr. A final analysis was run at t=>30 to confirm end point of reaction.
Controls of test compound DMSO solutions in 900 uL DMSO were also prepared and treated in the same manner, with samples analysed at t=0, t=8 and t=>30 hr. Half lives were calculated from the data generated.
Stability of compounds was analysed in simulated gastric fluid, pH1.2 (SGF) and phosphate buffered saline, pH7.3 (PBS).

cyclophilin A (CypA) = cyclophilin A (CypA) (Homo sapiens, UniProt P62937); conditions: cited from earlier work
calcineurin = conditions: in words; Zenke et al. 2001; cited from earlier work
[2] = iv, whole blood, 1 mg/kg i.v., read-out: AUClast after 1 mg/kg i.v. dose
[3] = whole blood, po, p.o. 10 or 5 mg/kg vs i.v. 1 mg/kg
[4] = po, whole blood, 10 mg/kg p.o., read-out: AUClast after 10 mg/kg p.o. dose
[5] = in vivo, iv, whole blood, 1 mg/kg i.v., read-out: AUClast after 1 mg/kg i.v. dose
[6] = in vivo, po, p.o. 10 or 5 mg/kg vs i.v. 1 mg/kg
[7] = in vivo, po, whole blood, 10 mg/kg p.o., read-out: AUClast after 10 mg/kg p.o. dose

Chain of cyclophilin A (CypA) (P62937 whole entry): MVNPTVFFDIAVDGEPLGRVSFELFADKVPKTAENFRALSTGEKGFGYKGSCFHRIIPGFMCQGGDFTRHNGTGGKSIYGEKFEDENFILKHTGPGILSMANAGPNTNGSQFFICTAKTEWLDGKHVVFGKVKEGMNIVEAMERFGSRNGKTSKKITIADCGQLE

Structure (SMILES) | AUC(0-t) (in vivo; [2]) | bioavailability (in vivo; [3]) | AUC(0-t) (in vivo; [4]) | further results
CC(=O)CC[C@H]1C(=O)N[C@@H](C(C)C)C(=O)N[C@@H](Cc2cc(O)cc(F)c2)C(=O)N2CCCC(N2)C(=O)O[C@H](/C(C)=C/C=C/C(=O)N2CCCCO2)C/C=C/C=C/[C@H](O)[C@H](C)[C@H]1O (some centres unmarked) [Compound 24] | 45500 ng·h/mL | 3.6% |  | SGF + denatured pepsin, % remaining after 1 hour ([1]; 37° C., 1 hour): 30%; SGF + Pepsin, % remaining after 1 hour ([1]; SGF + pepsin, 37° C., 1 hour): 23%; half-life at 100 µM ([1]; phosphate buffered saline (PBS), pH 7.3): > 1440 min; PBS % remaining after 1 hour ([1]; 1 hour): 100%; half-life at 100 µM ([1]; simulated gastric fluid (SGF), pH 1.2): < 19.8 min; SGF % remaining after 1 hour ([1]; 1 hour): 18%
C/C(=C\CO)[C@@H]1C/C=C/C=C/[C@@H]2OC3(C)CC[C@@H](C(=O)N[C@@H](C(C)C)C(=O)N[C@@H](Cc4cccc(O)c4)C(=O)N4CCCC(N4)C(=O)O1)[C@H](O3)[C@H]2C [Compound 35] | 813 ng·h/mL | 0.1% | 11.3 ng·h/mL | 
CNC(=O)/C=C/C=C(\C)[C@@H]1C/C=C/C=C/[C@H](O)[C@H](C)[C@@H](O)[C@@H](CCC(C)=O)C(=O)N[C@@H](C(C)C)C(=O)N[C@@H](Cc2cccc(O)c2)C(=O)N2CCCC(N2)C(=O)O1 (some centres unmarked) [Compound 36] | 4920 ng·h/mL | 0.04% | 17.8 ng·h/mL | 
CC(=O)CC[C@H]1C(=O)N[C@@H](C(C)C)C(=O)N[C@@H](Cc2cccc(O)c2)C(=O)N2CCCC(N2)C(=O)O[C@H](/C(C)=C/C=C/C(=O)OC(C)(C)C)C/C=C/C=C/[C@H](O)[C@H](C)[C@H]1O (some centres unmarked) [Compound 40] | 4910 ng·h/mL | 7.8% | 3880 ng·h/mL | 
CC(=O)CC[C@H]1C(=O)N[C@@H](C(C)C)C(=O)N[C@@H](Cc2cccc(O)c2)C(=O)N2CCCC(N2)C(=O)O[C@H](/C(C)=C/C=C/C(=O)N(CC(C)C)CC(C)C)C/C=C/C=C/[C@H](O)[C@H](C)[C@H]1O (some centres unmarked) [Compound 41] | 1940 ng·h/mL | 2.4% | 453 ng·h/mL | 
CC(=O)CC[C@H]1C(=O)N[C@@H](C(C)C)C(=O)N[C@@H](Cc2cccc(O)c2)C(=O)N2CCCC(N2)C(=O)O[C@H](/C(C)=C/C=C/C(=O)Nc2ccccn2)C/C=C/C=C/[C@H](O)[C@H](C)[C@H]1O (some centres unmarked) [Compound 42] |  |  |  | AUC(0-t) (in vivo; [5]): 11700 ng·h/mL; bioavailability (in vivo; [6]): 0.7%; AUC(0-t) (in vivo; [7]): 919 ng·h/mL
CC(=O)CC[C@H]1C(=O)N[C@@H](C(C)C)C(=O)N[C@@H](Cc2cccc(O)c2)C(=O)N2CCCC(N2)C(=O)O[C@H](/C(C)=C/C=C/C(=O)N2CCCCO2)C/C=C/C=C/[C@H](O)[C@H](C)[C@H]1O (some centres unmarked) [Compound 45] |  |  |  | AUC(0-t) (in vivo; [5]): 15100 ng·h/mL; bioavailability (in vivo; [6]): 3.2%; AUC(0-t) (in vivo; [7]): 4840 ng·h/mL; SGF + denatured pepsin, % remaining after 1 hour ([1]; 37° C., 1 hour): 15%; SGF + Pepsin, % remaining after 1 hour ([1]; SGF + pepsin, 37° C., 1 hour): 17%; half-life at 100 µM ([1]; buffer, pH 7.3): > 1440 min; PBS % remaining after 1 hour ([1]; 1 hour): 100%; SGF % remaining after 1 hour ([1]; 1 hour): 13%; half-life at 100 µM ([1]; simulated gi fluid, pH 1.2): < 19.8 min
CC[C@H]1C[C@H](C)[C@@]2(NC1=O)O[C@@H](C[C@H](O)[C@@H](C)CC/C=C/C=C(\C)[C@@H]1C/C=C/C=C/[C@H](O)[C@H](C)[C@@H](O)[C@@H](CCC(C)=O)C(=O)N[C@@H](C(C)C)C(=O)N[C@@H](Cc3cccc(O)c3)C(=O)N3CCC[C@H](N3)C(=O)O1)[C@H](C)[C@H](O)[C@@H]2C [Sanglifehrin A, 5, Sanglifehrin A, reference compound] |  |  |  | Oral bioavailability F % (in vivo; p.o. 10 or 5 mg/kg vs i.v. 1 mg/kg): 1.4%; affinity for CyPA compared to Cyclosporine A (fold higher) (cyclophilin A (CypA); relative to CsA): approximately 20 fold; SGF + denatured pepsin, % remaining after 1 hour ([1]; 37° C., 1 hour): 49%; SGF + Pepsin, % remaining after 1 hour ([1]; SGF + pepsin, 37° C., 1 hour): 41%; PBS % remaining after 1 hour ([1]; 1 hour): 76%; SGF % remaining after 1 hour ([1]; 1 hour): 52%; inhibition of the phosphatase activity of calcineurin (calcineurin): does not inhibit
CC(=O)CC[C@H]1C(=O)N[C@@H](C(C)C)C(=O)N[C@@H](Cc2cccc(O)c2)C(=O)N2CCC[C@H](N2)C(=O)O[C@H](/C(C)=C/CO)C/C=C/C=C/[C@H](O)[C@H](C)[C@H]1O [hydroxymacrocycle, 6, hydroxymacrocycle] |  |  |  | affinity for CyPA (cyclophilin A (CypA); in words, Sedrani et al., 2003): strong affinity

Now from value to compound, other results behind:

AUC(0-t) (in vivo; [2]) | bioavailability (in vivo; [3]) | AUC(0-t) (in vivo; [4]) | Structure (SMILES) | further results
22900 ng·h/mL | 2.4% |  | CON(C)C(=O)/C=C/C=C(\C)[C@@H]1C/C=C/C=C/[C@H](O)[C@H](C)[C@@H](O)[C@@H](CCC(C)=O)C(=O)N[C@@H](C(C)C)C(=O)N[C@@H](Cc2cc(O)cc(F)c2)C(=O)N2CCCC(N2)C(=O)O1 (some centres unmarked) [Compound 23] | 
5500 ng·h/mL | 1.5% |  | CON(C)C(=O)/C=C/C=C(\C)[C@@H]1C/C=C/C=C/C=C(\C)[C@@H](O)[C@@H](CCC(C)=O)C(=O)N[C@@H](C(C)C)C(=O)N[C@@H](Cc2cc(O)cc(F)c2)C(=O)N2CCCC(N2)C(=O)O1 (some centres unmarked) [Compound 26] | AUC(0-t) (in vivo; po, whole blood, 5 mg/kg p.o., read-out: AUClast after 5 mg/kg p.o. dose): 421 ng·h/mL
14300 ng·h/mL | 1.6% | 2200 ng·h/mL | CON(C)C(=O)/C=C/C=C(\C)[C@@H]1C/C=C/C=C/[C@H](O)[C@H](C)[C@@H](O)[C@@H](CCC(C)=O)C(=O)N[C@@H](C(C)C)C(=O)N[C@@H](Cc2cccc(O)c2)C(=O)N2CCCC(N2)C(=O)O1 (some centres unmarked) [Compound 33] | half-life at 100 µM ([1]; buffer, pH 7.3): > 1440 min; SGF + Pepsin, % remaining after 1 hour ([1]; pig, simulated gi fluid, 1 h, 100 µM): 25%; half-life at 100 µM ([1]; simulated gi fluid, pH 1.2): 39.6 min
14000 ng·h/mL | 0.1% | 800 ng·h/mL | CCN(CC)C(=O)/C=C/C=C(\C)[C@@H]1C/C=C/C=C/[C@H](O)[C@H](C)[C@@H](O)[C@@H](CCC(C)=O)C(=O)N[C@@H](C(C)C)C(=O)N[C@@H](Cc2cccc(O)c2)C(=O)N2CCCC(N2)C(=O)O1 (some centres unmarked) [Compound 34] | 
1220 ng·h/mL | 0.04% | 4.76 ng·h/mL | CNC(=O)/C=C/C=C(\C)[C@@H]1C/C=C/C=C/[C@H](O)[C@H](C)[C@@H](O)[C@@H](CCC(C)=O)C(=O)N[C@@H](C(C)C)C(=O)N[C@@H](Cc2cccc(OC)c2)C(=O)N2CCCC(N2)C(=O)O1 (some centres unmarked) [Compound 37] | 
5790 ng·h/mL | 5.5% | 3090 ng·h/mL | CCOC(=O)/C=C/C=C(\C)[C@@H]1C/C=C/C=C/[C@H](O)[C@H](C)[C@@H](O)[C@@H](CCC(C)=O)C(=O)N[C@@H](C(C)C)C(=O)N[C@@H](Cc2cccc(O)c2)C(=O)N2CCCC(N2)C(=O)O1 (some centres unmarked) [Compound 38] | 
1660 ng·h/mL | 0.9% | 111 ng·h/mL | CCCC(=O)/C=C/C=C(\C)[C@@H]1C/C=C/C=C/[C@H](O)[C@H](C)[C@@H](O)[C@@H](CCC(C)=O)C(=O)N[C@@H](C(C)C)C(=O)N[C@@H](Cc2cccc(O)c2)C(=O)N2CCCC(N2)C(=O)O1 (some centres unmarked) [Compound 39] | 
9800 ng·h/mL | 9.2% | 8980 ng·h/mL | CC(=O)CC[C@H]1C(=O)N[C@@H](C(C)C)C(=O)N[C@@H](Cc2cccc(O)c2)C(=O)N2CCCC(N2)C(=O)O[C@H](/C(C)=C/C=C/C(=O)N2CCOCC2)C/C=C/C=C/[C@H](O)[C@H](C)[C@H]1O (some centres unmarked) [Compound 43] | 
2500 ng·h/mL | 0% |  | CC(=O)CC[C@H]1C(=O)N[C@@H](C(C)C)C(=O)N[C@@H](Cc2cccc(O)c2)C(=O)N2CCCC(N2)C(=O)O[C@H](/C(C)=C/C=C/C(=O)Nc2ccc(-c3ccccc3)cc2)C/C=C/C=C/[C@H](O)[C@H](C)[C@H]1O (some centres unmarked) [Compound 44] | 
